Test results published in US20150111934A1, “CRYSTALLINE FORMS OF AN ADRENERGIC AGONIST” (DIPHARMA FRANCIS S.R.L., priority 2013, published 2015).

Experiments:
[1] = cited from earlier work; for physical stability of the crystalline form: prior art forms of U.S. Pat. No. 7,342,117
[2] = solubility in water
[3] = physchem; details: 25 °C, water

Row | Structure (SMILES) | physical stability of the crystalline form [1] | solubility in water (in words) [2] | further results
1 | Cl.Cl.Nc1nc(CC(=O)Nc2ccc(CCNCC(O)c3ccccc3)cc2)cs1 (stereo not drawn) | – | – | hygroscopicity and stability of the crystalline salt ([1]; as demonstrated in U.S. Pat. No. 7,342,117): highly hygroscopic and unstable
2 | Nc1nc(CC(=O)Nc2ccc(CCNC[C@H](O)c3ccccc3)cc2)cs1 [Crystalline form α of Mirabegron, (R)-2-(2-Aminothiazol-4-yl)-4′-[2-[(2-hydroxy-2-phenylethyl)amino]ethyl]acetanilide] | stable solid form | practically insoluble in water | –
3 | CC(=O)O.Nc1nc(CC(=O)Nc2ccc(CCNC[C@H](O)c3ccccc3)cc2)cs1 [Mirabegron acetate salt, 2-(2-amino-1,3-thiazol-4-yl)-N-[4-(2-{[(2R)-2-hydroxy-2-phenylethyl]amino}ethyl)phenyl]acetamide acetate salt] | – | – | solubility [3]: ~100 mg/mL
4 | Nc1nc(CC(=O)Nc2ccc(CCNC[C@H](O)c3ccccc3)cc2)cs1 [Mirabegron base, (R)-2-(2-Aminothiazol-4-yl)-4′-[2-[(2-hydroxy-2-phenylethyl)amino]ethyl]acetanilide] | – | almost wholly insoluble in water | –
5 | Nc1nc(CC(=O)Nc2ccc(CCNC[C@H](O)c3ccccc3)cc2)cs1 [form β, (R)-2-(2-Aminothiazol-4-yl)-4′-[2-[(2-hydroxy-2-phenylethyl)amino]ethyl]acetanilide] | metastable polymorph | – | –
